According to PubChem BioAssay (NCI):
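Briefly, cells in 96-well plates were exposed to five compound concentrations for 48 h, and endpoints were estimated by linear interpolation. Here, GI50 denotes the concentration required for 50% inhibition of growth. The concentration for full growth arrest is given as TGI.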

How the values were obtained:
Experiment in all cases: NCI tumour cell line growth inhibition, 48 h
[1] = test system: COLO 205 colon
[2] = test system: HCT-116 colon
[3] = test system: HOP-92 NSCLC
[4] = test system: M14 melanoma
[5] = test system: MOLT-4 leukemia
[6] = test system: RPMI-8226 leukemia
[7] = test system: RXF 393 renal
[8] = test system: SF-295 CNS
[9] = test system: UACC-62 melanoma
[10] = test system: HL-60(TB) leukemia

SMILES | GI50 [1] [µM] | TGI [1] [µM] | GI50 [2] [µM] | TGI [2] [µM] | GI50 [3] [µM] | TGI [3] [µM] | GI50 [4] [µM] | TGI [4] [µM] | GI50 [5] [µM] | TGI [5] [µM] | GI50 [6] [µM] | TGI [6] [µM] | GI50 [7] [µM] | TGI [7] [µM] | GI50 [8] [µM] | TGI [8] [µM] | GI50 [9] [µM] | TGI [9] [µM] | TGI [10] [µM] | GI50 [10] [µM]
O=C(CSc1nc2c(n1Nc1ccccc1)-c1ccccc1SC2)Nc1nc(-c2ccc(Cl)cc2)cs1 | 4.1 | > 100 | 6.37 | > 100 | 11.6 | 71 | > 100 | > 100 | > 100 | > 100 | > 100 | > 100 | 15.8 | 43.4 | 11.3 | 33.5 | 13.5 | > 100 | – | –
O=C(NCCCCN1CCOCC1)c1cc2ccccc2o1 | > 100 | > 100 | > 100 | > 100 | – | – | > 100 | > 100 | – | – | – | – | > 100 | > 100 | > 100 | > 100 | > 100 | > 100 | – | –
O=C(O)CSc1n[nH]c(=O)[nH]c1=O | – | > 100 | – | > 100 | – | – | – | > 100 | – | > 100 | – | > 100 | – | > 100 | – | > 100 | – | > 100 | > 100 | –
Cc1nc([N+](=O)[O-])cn1-c1nc2ccccn2c1[N+](=O)[O-] | – | > 100 | – | > 100 | – | > 100 | – | > 100 | – | – | – | > 100 | – | 44.5 | – | > 100 | – | > 100 | – | –
CCN(CC)CCCNc1nccc2c(C)c3c(cc12)c1cnccc1n3C | – | 1.4 | – | 0.378 | – | – | – | 1.12 | – | – | – | – | – | – | – | 1.31 | – | 2.25 | – | –
Cc1onc(-c2ccccc2)c1C(=O)N/N=C/c1cc(Cl)cc(Cl)c1O | 3.84 | 24.2 | 4.11 | > 100 | – | – | 3.74 | 46.3 | 3.53 | 22.9 | 5.61 | 49.7 | 7.72 | > 100 | 2.05 | 11.3 | 2.16 | 6.83 | 7.32 | 2.61
CC1=N/C(=C/c2ccc3c(c2)OCO3)C(=O)O1 | – | > 100 | – | > 100 | – | > 100 | – | > 100 | – | > 100 | – | > 100 | – | > 100 | – | – | – | > 100 | – | –
COc1cc(/C=C2\CC3C4CC=C5C[C@@H](OC(C)=O)CC[C@]5(C)C4CC[C@]3(C)C2=O)ccc1OCCN1CCCCC1 (some centres not stated) | 3.14 | 30.4 | – | – | – | – | 2.09 | 3.79 | 1.16 | 3.23 | – | – | 2.95 | 14.6 | 2.41 | 5.08 | 1.99 | 3.66 | – | –
O=C(CN(/C=C/C(=O)C(F)(F)F)c1ccc(Cl)cc1)c1ccc(Cl)cc1 | 13.4 | 31.8 | 4.09 | 20.7 | 19.2 | 35.8 | – | – | 8.82 | 37.4 | 11.5 | 37.7 | 10.2 | 35.9 | 4.66 | 17.7 | 3.03 | 13.4 | – | –
COc1cc(/C=C2\C(=O)N(C(=O)Cc3ccccc3)N=C2C)cc(OC)c1OC | – | > 100 | – | > 100 | – | – | – | > 100 | – | > 100 | – | > 100 | – | – | – | > 100 | – | – | > 100 | –
CC1(C)OC2C(CCP(=O)(O)O)OC(c3nc(C(N)=O)cs3)C2O1 (configuration not stated) | – | > 100 | – | > 100 | – | > 100 | – | > 100 | – | > 100 | – | > 100 | – | > 100 | – | – | – | > 100 | – | –
C=CN(C(=O)N1CCN(c2cc3c(cc2F)c(=O)c(C(=O)O)cn3C2CC2)CC1)c1nc(-c2ccc(OC)cc2)cs1 | 2.54 | 6.59 | 3.42 | > 100 | 2.45 | 5.57 | 3.61 | > 100 | 3.36 | > 100 | 2.75 | > 100 | 5.2 | 45.1 | 2.83 | 8.26 | – | – | – | –
OCC1C(OCc2ccccc2)C(OCc2ccccc2)C(OCc2ccccc2)CN1Cc1ccccc1 (configuration not stated) | – | 28.4 | – | 81.5 | – | 44.8 | – | > 100 | – | > 100 | – | – | – | 48.4 | – | > 100 | – | > 100 | – | –
Clc1c(Cl)[n+](Cc2ccc3ccccc3c2)cn1Cc1ccc2ccccc2c1 | 1.13 | 2.57 | 1.45 | 2.87 | 0.733 | 2.14 | 1.21 | 2.8 | – | – | 1.25 | 3.55 | 1.63 | 3.1 | 1.4 | 2.82 | 1.13 | 2.45 | – | –
Cc1cnc2ccc(C)c([N+](=O)[O-])c2c1NCCCN(C)C | – | > 100 | – | > 100 | – | – | – | > 100 | – | > 100 | – | > 100 | – | – | – | > 100 | – | – | > 100 | –
COc1cc(C2C(Cl)C(=O)N2NC(=O)Cc2ccccc2)cc(Br)c1O (configuration not stated) | – | > 100 | – | > 100 | – | – | – | > 100 | – | > 100 | – | > 100 | – | > 100 | – | > 100 | – | > 100 | > 100 | –
